Holding throughout (assay): inhibition of tumour cell growth, NCI panel, 48 h
Experiment [1] relates to A549.
The subject of experiment [2] is CCRF-CEM.
The test system of experiment [3] is EKVX.
In experiment [4] the test system is HL-60.
The subject of experiment [5] is HOP-62.
In experiment [6] the test system is Hs-578T.
Experiment [7] relates to K562.
Experiment [8] concerns MDA-MB-435.
Experiment [9] deals with NCI-H23.
In experiment [10] the test system is NCI/ADR-RES.
The subject of experiment [11] is OVCAR-3.
The test system of experiment [12] is SR.
Experiment [13] concerns T47D.
The subject of experiment [14] is TK-10.
In experiment [15] the test system is U-251.
Experiment [16] has as its system UACC-257.
For experiment [17], the system named is NCI-H460.
For experiment [18], the system named is SN12C.
For experiment [19], the system named is SNB-75.

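48-hour exposure; five concentrations; linearly interpolated endpoints. GI50 marks 50% less growth.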 Active and inactive are the calls of the source. Cut-off read from the data, not from the text of the source: active = GI50 up to about 1.1 µM and inactive = higher. Bounds are passed on as bounds.

Turning to `O=Cc1c2n(c3ccccc13)N[C@@](Cc1ccc(O)cc1)(C(=O)O)C2`, the GI50 in [1] was > 100 µM (inactive); in experiment [2] it was 34.5 µM (inactive); in [3], > 100 µM (inactive); in experiment [4] it was 47.1 µM (inactive); in [5], 46.7 µM (inactive); in experiment [6] it was > 100 µM (inactive). The GI50 in [7] was 97.3 µM (inactive); in experiment [8], > 100 µM (inactive); in experiment [9] it was > 100 µM (inactive); in experiment [10], 35.9 µM (inactive); in experiment [11], 19.5 µM (inactive); in experiment [12], 38.1 µM (inactive). The GI50 in experiment [13] is 82.4 µM (inactive); in experiment [14], > 100 µM (inactive); in experiment [15], > 100 µM (inactive); in [16] it was 31 µM (inactive).
With `C/C1=C/C[C@@H](/C(C)=C/c2csc(C)n2)OC(=O)C[C@H](O)C(C)(C)C(=O)[C@H](C)[C@@H](O)[C@@H](C)CCC1` [EPOTHILONE D], the GI50 in experiment [1], in experiment [2], in experiment [3], in experiment [5], in experiment [6] and in experiment [7] was < 0.0001 µM (active) throughout. Moreover, the GI50 in [8], in [9], in experiment [17], in experiment [10], in experiment [11] and in [18] was < 0.0001 µM (active) each time. In addition, the GI50 is < 0.0001 µM (active) in [19]; < 0.0001 µM (active) in experiment [12]; < 0.0001 µM (active) in [13]; 0.000192 µM (active) in [14]; < 0.0001 µM (active) in [15].
`CCn1nc2c3c(ncn3C(C)(C)O2)c1=O`: the GI50 in experiment [1], in [2], in [3], in experiment [4], in experiment [5] and in [6] was > 100 µM (inactive) throughout. The GI50 in experiment [7], in experiment [8], in experiment [9], in experiment [17], in experiment [10] and in [18] was > 100 µM (inactive) in each case. Further, the GI50 in experiment [12], in [13], in experiment [14], in experiment [15] and in experiment [16] was > 100 µM (inactive) each time.
With `Cc1cc(-c2no[n+]([O-])c2-c2cc(C)sc2S(C)(=O)=O)c(S(C)(=O)=O)s1`, the GI50 is > 100 µM (inactive) in experiment [2]; > 100 µM (inactive) in experiment [3]; > 100 µM (inactive) in experiment [5]; > 100 µM (inactive) in experiment [6]; 83.4 µM (inactive) in [7]; > 100 µM (inactive) in experiment [8]. Further, the GI50 in experiment [9], in [17], in experiment [10], in experiment [11], in [18] and in experiment [19] was > 100 µM (inactive) throughout. In addition, the GI50 in experiment [12] was > 100 µM (inactive); in [13], 89.5 µM (inactive); in experiment [14], > 100 µM (inactive); in [15], > 100 µM (inactive).
As for `Cn1c2ccccc2c(=NNc2cccc(C(=O)O)c2)c2ccccc21`, the GI50 in [1] was 5.75 µM (inactive); in experiment [2] it was 6.41 µM (inactive); in experiment [3] it was 5.57 µM (inactive); in experiment [4], 11.3 µM (inactive); in experiment [5], 12.7 µM (inactive); in experiment [6] it was 17.8 µM (inactive). Besides, the GI50 in experiment [7] is 3.37 µM (inactive); in experiment [8], 13.3 µM (inactive); in [9] it was 9.95 µM (inactive); in [17] it was 4.86 µM (inactive); in experiment [10], 24.3 µM (inactive); in experiment [11] it was 3.57 µM (inactive). Besides, the GI50 is 6.55 µM (inactive) in experiment [18]; 23.9 µM (inactive) in [19]; 5.79 µM (inactive) in [13]; 15.5 µM (inactive) in experiment [14]; 4.69 µM (inactive) in experiment [15]; 28.5 µM (inactive) in [16].
Take `CC(=O)O[C@H](C[C@@H](C)[C@H]1C(=O)[C@H](O)[C@@]2(C)C3CC[C@H]4C(C)(C)[C@@H](OC5OCC(O)C(O)C5O)CC[C@@]45C[C@@]35CC[C@]12C)[C@@H]1OC1(C)C` (some centres not stated): the GI50 in experiment [1] is 27.9 µM (inactive); in [2], 1.93 µM (inactive); in experiment [3], 18 µM (inactive); in [4], 2.21 µM (inactive); in experiment [5], 12.1 µM (inactive); in experiment [6], 38 µM (inactive). The GI50 in experiment [7] was 0.14 µM (active); in experiment [8], 17.7 µM (inactive); in [9] it was 23.9 µM (inactive); in experiment [17], 16.9 µM (inactive); in experiment [10], 47.3 µM (inactive); in [11], 2.29 µM (inactive). Also, the GI50 in [18] was 18.9 µM (inactive); in [19], 12.1 µM (inactive); in [13] it was 17.4 µM (inactive); in experiment [14], 16.3 µM (inactive); in [15] it was 16.3 µM (inactive); in experiment [16], 18.6 µM (inactive).
On to `CC(=O)N1C(C(=O)NN2CCOCC2)CSC1c1ccccc1` (configuration not stated), for which the GI50 in experiment [1], in experiment [2], in [3], in experiment [5], in [6] and in [7] was > 100 µM (inactive) each time. The GI50 in experiment [8], in [9], in experiment [17], in [10], in experiment [11] and in experiment [18] was > 100 µM (inactive) in each case. Further, the GI50 in experiment [19], in experiment [12], in experiment [13], in [14], in experiment [15] and in [16] was > 100 µM (inactive) each time.
For `O=c1oc2ccc3ccccc3c2cc1-c1nnc(Nc2ccccc2)s1`, the GI50 in experiment [1] is 31.4 µM (inactive); in experiment [3] it was 46.5 µM (inactive); in experiment [6], 65 µM (inactive); in experiment [7] it was 51.5 µM (inactive); in experiment [8], 78.3 µM (inactive); in [9], 31 µM (inactive). In addition, the GI50 is 18.7 µM (inactive) in experiment [17]; 52.5 µM (inactive) in experiment [10]; 17.4 µM (inactive) in [11]; 50.8 µM (inactive) in [18]; 19.3 µM (inactive) in experiment [12]; 77.1 µM (inactive) in experiment [13]. The GI50 in [14] was 16.9 µM (inactive); in experiment [15], 7.59 µM (inactive); in experiment [16], > 100 µM (inactive).
Regarding `O=c1oc2ccccc2cc1-c1cn2ccccc2n1`, the GI50 in experiment [1] was 5.48 µM (inactive); in experiment [2], 5.18 µM (inactive); in [3] it was 11.4 µM (inactive); in experiment [5], 3.24 µM (inactive); in experiment [6], 4.5 µM (inactive); in experiment [7], 10.2 µM (inactive). For the same compound, the GI50 in experiment [8] is 4.1 µM (inactive); in experiment [9], 12.1 µM (inactive); in [17], 4.16 µM (inactive); in experiment [10], 3.15 µM (inactive); in experiment [11], 4.16 µM (inactive); in experiment [18], 4.6 µM (inactive). Moreover, the GI50 in [19] is 2.47 µM (inactive); in [12], 3.85 µM (inactive); in experiment [13] it was 14.6 µM (inactive); in [14], 8.02 µM (inactive); in experiment [15], 2.33 µM (inactive); in experiment [16] it was 3.89 µM (inactive).
Regarding `CSc1nc(NC(C)C)c2c(n1)Sc1nc3ccccc3n1C2O` (configuration not stated), the GI50 is 3.41 µM (inactive) in experiment [1]; 1.75 µM (inactive) in experiment [2]; 11.5 µM (inactive) in experiment [3]; 6.37 µM (inactive) in experiment [5]; 2.79 µM (inactive) in experiment [6]; 3.15 µM (inactive) in [7]. The GI50 in experiment [8] was 1.74 µM (inactive); in experiment [9], 4.79 µM (inactive); in experiment [10], 2.56 µM (inactive); in experiment [11] it was 2.51 µM (inactive); in experiment [18] it was 9.57 µM (inactive); in experiment [19] it was 4.61 µM (inactive). Further, the GI50 was 2.84 µM (inactive) in experiment [12]; 4.2 µM (inactive) in experiment [13]; 14.3 µM (inactive) in experiment [14]; 3.11 µM (inactive) in experiment [15]; 40.9 µM (inactive) in experiment [16].
For `CC(C)[Si](OC1=C(C(=O)N(C)c2ccccc2Cl)CCCC1)(C(C)C)C(C)C`, the GI50 in experiment [1] is 1.57 µM (inactive); in experiment [2], 12.7 µM (inactive); in [3] it was 13.6 µM (inactive); in [5], 18 µM (inactive); in [6], 13.3 µM (inactive); in experiment [7], 6.15 µM (inactive). The GI50 is 16.4 µM (inactive) in experiment [8]; 16.3 µM (inactive) in experiment [9]; 12.9 µM (inactive) in experiment [17]; 14.9 µM (inactive) in experiment [10]; 13.2 µM (inactive) in experiment [11]; 14.3 µM (inactive) in experiment [19]. The GI50 was 5.43 µM (inactive) in [12]; 2.55 µM (inactive) in experiment [13]; 15.1 µM (inactive) in experiment [14]; 12.1 µM (inactive) in experiment [15]; 10.2 µM (inactive) in [16].

The values are drawn from ChEMBL document CHEMBL1201862, “PubChem BioAssay data set” (2004).
